Measured values published in patent US12441719B2, “Inhibitors of SARM1” (Disarm Therapeutics, Inc., priority 2019, dated 2025).

Each molecule was assayed against T1, SARM1 (Homo sapiens, UniProt Q6SZW1) (assay: ARM-SAM-TIR SARM1 IC50 assay (NADase activity, NAD+ cleavage)). Details: not given.
T1 construct: AviTag […]; made in house; host or cells: NRK1-HEK293T cells, transiently transfected; the clarified sonicated lysate was used without purification
T1 sequence (Q6SZW1 with tags, fused parts or gaps): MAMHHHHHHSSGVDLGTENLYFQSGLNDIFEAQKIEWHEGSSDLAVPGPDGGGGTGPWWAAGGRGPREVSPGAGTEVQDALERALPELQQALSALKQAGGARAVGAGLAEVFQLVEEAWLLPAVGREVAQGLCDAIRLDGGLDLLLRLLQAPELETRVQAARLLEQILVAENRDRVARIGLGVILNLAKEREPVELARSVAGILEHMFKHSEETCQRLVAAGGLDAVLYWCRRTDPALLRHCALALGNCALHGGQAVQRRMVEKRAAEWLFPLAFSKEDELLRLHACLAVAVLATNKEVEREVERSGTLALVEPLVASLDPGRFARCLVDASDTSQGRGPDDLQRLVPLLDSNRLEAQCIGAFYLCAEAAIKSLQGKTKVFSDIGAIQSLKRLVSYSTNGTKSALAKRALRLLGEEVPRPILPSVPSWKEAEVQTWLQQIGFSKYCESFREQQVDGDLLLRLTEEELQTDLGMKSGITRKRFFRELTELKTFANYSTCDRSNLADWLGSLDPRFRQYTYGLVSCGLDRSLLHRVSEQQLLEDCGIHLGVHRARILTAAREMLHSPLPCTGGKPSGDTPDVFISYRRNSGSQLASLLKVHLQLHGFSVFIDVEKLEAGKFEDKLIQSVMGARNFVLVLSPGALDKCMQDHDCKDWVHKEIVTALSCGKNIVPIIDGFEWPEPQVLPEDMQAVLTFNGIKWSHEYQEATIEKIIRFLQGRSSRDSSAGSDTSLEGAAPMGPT
Format: biochemical
From the text: This Example describes an assay of ARM-SAM-TTR NADase activity and use of this assay to measure the efficacy of compounds of Formula I or Formula II to block SARM1 mediated NAD+ cleavage. This assay is optimized in such a way as to characterize the efficacy of the compounds in Formula I or Formula II to inhibit SARM1 activity and to calculate an IC50 value for each compound. This assay makes use of full length SARI, which encompasses the ARM, SAM and TTR domains.
Preparation of ARM-SAM-TIR Lysate (STL)
NRK1-HEK293T cells were seeded onto 150 cm^2 plates at 20×10^6 cells per plate. The next day, the cells were transfected with 15 μg ARM-SAM-TIR expression plasmid, SEQ ID NO: 1.
The cultures were supplemented with 1 mM NR at time of transfection to minimize toxicity from ARM-SAM-TIR overexpression. Forty-eight hours after transfection, cells were harvested, pelleted by centrifugation at 1,000 rpm (Sorvall ST 16R centrifuge, Thermo Fisher), and washed once with cold PBS (0.01 M phosphate buffered saline NaCl 0.138 M; KCl 0.0027 M; pH 7.4). The cells were resuspended in PBS with protease inhibitors (cOmplete™ protease inhibitor cocktail, Roche product #11873580001) and cell lysates were prepared by sonication (Branson Sonifer 450, output=3, 20 episodes of stroke). The lysates were centrifuged (12,000×g for 10 min at 4° C.) to remove cell debris and the supernatants (containing ARM-SAM-TIR protein) were stored at −80° C. for later use in the in vitro ARM-SAM-TIR NADase assay (see below). Protein concentration was determined by the Bicinchoninic (BCA) method and used to normalize lysate concentrations.
ARM-SAM-TIR IC50 Assay of Formula I or Formula II Compounds.
The enzymatic assay was performed in a 384-well polypropylene plate in Dulbecco's PBS buffer in a final assay volume of 20 μL. ARM-SAM-TIR lysate with a final concentration of 5 μg/mL was pre-incubated with the respective compound at 1% DMSO final assay concentration over 2 h at room temperature. The reaction was initiated by addition of 5 μM final assay concentration of NAD+ as substrate. After a 2 hr room temperature incubation, the reaction was terminated with 40 μL of stop solution of 7.5% trichloroactetic acid in acetonitrile. The NAD+ and ADPR concentrations were analyzed by a RapidFire High Throughput Mass Spectrometry System (Agilent Technologies, Santa Clara, CA) using an API4000 triple quadrupole mass spectrometer (AB Sciex Framingham, MA).

| Structure (SMILES) | IC50 [µM] |
| --- | --- |
| CC(C)(C)OC(=O)N1C2CC1CN(c1cc(C#N)c3cc(Cl)ccc3n1)C2 [Example 91] | < 5 |

Same assay, conditions: ARM-SAM-TIR lysate 5 μg/mL from NRK1-HEK293T cells; 2 h pre-incubation with compound, 5 μM NAD+, 2 hr room temperature; NAD+ and ADPR by RapidFire mass spectrometry; read-out: SARM1 IC50

| IC50 [µM] | Structure (SMILES) |
| --- | --- |
| > 30 | N#Cc1cc(N2CCC(N)CC2)nc2ccc(F)cc12 [Example 23] |
| < 5 | C[C@@H]1CCC[C@H](C)N1c1cc(C#N)c2cc(CO)ccc2n1 [Example 149] |
| < 5 | Cn1cc(C(=O)N[C@H]2CCCN(c3cc(C#N)c4cc(Br)ccc4n3)C2)cn1 [Example 128] |
| 15 to 30 | N#Cc1cc(-c2cccnc2)nc2ccc(Cl)cc12 [Example 87] |
| < 5 | N#Cc1cc(N2CC[C@@H](C(=O)N3CCCC3)C2)nc2ccc(Br)cc12 [Example 143] |
| < 5 | COCCN(C)C(=O)[C@H]1CCCN(c2cc(C#N)c3cc(Br)ccc3n2)C1 [Example 112] |
| 15 to 30 | CC(O)CNc1cc(C#N)c2cc(Cl)ccc2n1 (stereo not drawn) [Example 38] |
| < 5 | CS(=O)(=O)NC1CCN(c2cc(C#N)c3cc(Br)ccc3n2)CC1 [Example 117] |
| < 5 | C[C@]1(NS(C)(=O)=O)CCCN(c2cc(C#N)c3cc(Br)ccc3n2)C1 [Example 120] |
| < 5 | CS(=O)(=O)N[C@H]1CCCN(c2cc(C#N)c3cc(Br)ccc3n2)C1 [Example 110] |
| > 30 | CN1CCN(c2cc(C#N)c3cc(Cl)ccc3n2)CC1 [Example 52] |
| 5 to 15 | CS(=O)(=O)C1CCN(c2cc(C#N)c3cc(Cl)ccc3n2)CC1 [Example 55] |
| < 5 | Cc1nccnc1C(=O)N[C@H]1CCCN(c2cc(C#N)c3cc(Br)ccc3n2)C1 [Example 134] |
| < 5 | N#Cc1cc(N2CCC[C@H](N)C2)nc2ccc(Cl)cc12 [Example 58] |
